From paper PMC10023787, “Trio-pharmacophore DNA-encoded chemical library for simultaneous selection of fragments and linkers” (Nature Communications, 2023)

Key:
MMP-2 = molecular target: T1, MMP-2 (Homo sapiens, UniProt P08253); assay: MMP-2 inhibition assay (fluorogenic peptide substrate); assay type: biochemical; conditions: for remaining activity (%): MMP-2; for IC50: mean ± SE, n.d: not detected, Fig. 5d unit inferred, µM, read-out: IC50
T1 construct: purchased Sino Biological 10082-HNAH
T1 sequence (P08253 110-660): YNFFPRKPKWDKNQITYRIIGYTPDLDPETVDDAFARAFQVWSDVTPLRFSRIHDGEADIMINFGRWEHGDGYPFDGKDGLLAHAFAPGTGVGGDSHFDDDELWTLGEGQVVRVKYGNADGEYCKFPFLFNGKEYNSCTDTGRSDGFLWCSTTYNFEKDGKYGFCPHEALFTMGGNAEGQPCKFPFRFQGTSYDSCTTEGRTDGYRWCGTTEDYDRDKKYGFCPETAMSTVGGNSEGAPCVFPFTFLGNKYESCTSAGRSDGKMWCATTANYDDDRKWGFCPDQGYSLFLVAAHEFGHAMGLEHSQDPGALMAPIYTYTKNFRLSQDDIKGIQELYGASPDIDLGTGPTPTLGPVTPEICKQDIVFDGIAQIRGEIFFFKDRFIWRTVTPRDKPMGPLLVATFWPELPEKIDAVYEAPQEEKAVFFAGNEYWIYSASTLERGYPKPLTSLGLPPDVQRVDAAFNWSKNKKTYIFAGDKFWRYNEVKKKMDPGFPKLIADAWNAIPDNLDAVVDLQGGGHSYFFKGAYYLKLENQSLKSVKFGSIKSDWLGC
Method: (§1) The inhibition by the small molecule compounds against MMP-2/MMP-9 was measured using an assay probing the enzyme proteolytic activity on the substrate DNP-Pro-Leu-Gly-Met-Trp-Ser-Arg (Enzo Life Sciences, USA). All assays were performed in the assay buffer containing 50 mM Tris, 100 mM NaCl. 5 mM CaCl2, and 0.1% Brij 35, pH 7.5. Human proMMP-2 and proMMP-9 were purchased from Sino biological (Germany). The proMMPs were activated by 1 mM APMA in the assay buffer at 37 °C for 2 h. After activation, MMP-2 was diluted to 6.5 nM of final assay concentration, and MMP-9 was diluted by the buffer to reach 10 nM of final assay concentration. In each well, 49 μl of enzyme solution was incubated with 1 μl of compounds of series of concentration (nM-mM in DMSO) at RT for 30 min. 2 μl of the FRET substrate was added right before the measurement at a final concentration of 25 μM. The rate of hydrolysis was monitored by quantifying the emission at 360 nm (ex: 280 nm). The emission was measured with intervals of the 30 s for 30 min with Synergy H1 Plate Reader (Agilent, USA). The measurements were done in triplicate. […] Then, curves were plotted as a function of the concentration of the inhibitor against the relative enzyme activity. Vmax was derived from the detected […] signal for each concentration and logistic fitting was performed to obtain IC50 values using Origin 2019b (OriginLab).

MMP-9 = molecular target: T2, MMP-9 (Homo sapiens, UniProt P14780); assay: MMP-9 inhibition assay (fluorogenic peptide substrate); assay type: biochemical; set-up: remaining enzyme activity (% of control): scale not given here; conditions: for remaining enzyme activity (% of control): MMP-9; for IC50: mean ± SE, n.d: not detected, Fig. 5e prints no unit, µM, read-out: IC50
T2 construct: purchased Sino Biological 10327-HNAH
Method: as §1

T2 sequence (P14780 107-707 limits assumed): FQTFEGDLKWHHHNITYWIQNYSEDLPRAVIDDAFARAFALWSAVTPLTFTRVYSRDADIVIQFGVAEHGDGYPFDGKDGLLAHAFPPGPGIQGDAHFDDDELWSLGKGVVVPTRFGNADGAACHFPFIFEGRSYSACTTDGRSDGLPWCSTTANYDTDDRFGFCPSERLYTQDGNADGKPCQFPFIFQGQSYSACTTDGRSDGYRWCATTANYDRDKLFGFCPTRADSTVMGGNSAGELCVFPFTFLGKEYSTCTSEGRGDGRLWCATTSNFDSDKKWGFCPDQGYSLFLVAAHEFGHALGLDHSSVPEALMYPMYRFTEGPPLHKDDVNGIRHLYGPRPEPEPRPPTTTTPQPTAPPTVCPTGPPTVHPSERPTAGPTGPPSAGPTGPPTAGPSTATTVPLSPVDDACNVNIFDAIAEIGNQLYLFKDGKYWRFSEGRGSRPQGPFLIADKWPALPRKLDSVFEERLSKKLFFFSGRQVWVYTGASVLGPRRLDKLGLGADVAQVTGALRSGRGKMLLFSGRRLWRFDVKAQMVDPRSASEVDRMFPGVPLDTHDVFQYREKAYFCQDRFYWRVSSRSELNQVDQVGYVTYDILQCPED

Row | SMILES | IC50 (MMP-2) [µM] | remaining activity (%) (MMP-2; concentration 1.95 µM) | remaining enzyme activity (% of control) (MMP-9; concentration 0.08 µM) | remaining enzyme activity (% of control) (MMP-9; concentration 0.39 µM) | remaining enzyme activity (% of control) (MMP-9; concentration 1.95 µM) | remaining enzyme activity (% of control) (MMP-9; concentration 9.75 µM) | remaining enzyme activity (% of control) (MMP-9; concentration 48.76 µM) | remaining enzyme activity (% of control) (MMP-9; concentration 243.80 µM) | remaining activity (%) (MMP-2; concentration 0.12 µM) | remaining activity (%) (MMP-2; concentration 0.49 µM) | remaining activity (%) (MMP-2; concentration 7.81 µM) | remaining activity (%) (MMP-2; concentration 31.25 µM) | remaining activity (%) (MMP-2; concentration 125.00 µM) | remaining activity (%) (MMP-2; concentration 500.00 µM) | remaining enzyme activity (% of control) (MMP-9; concentration 0.12 µM) | remaining enzyme activity (% of control) (MMP-9; concentration 0.49 µM) | remaining enzyme activity (% of control) (MMP-9; concentration 7.81 µM) | remaining enzyme activity (% of control) (MMP-9; concentration 31.25 µM) | remaining enzyme activity (% of control) (MMP-9; concentration 125.00 µM) | remaining enzyme activity (% of control) (MMP-9; concentration 500.00 µM) | also measured
1 | O=C(/C=C/CCCCC(=O)NCc1c[nH]nn1)CC(=O)NCC12CC3CC(CC(C3)C1)C2 [66+787 Linker 12] | 339 ± 63.3 |  |  |  |  |  |  |  |  |  |  |  |  |  |  |  |  |  |  |  | remaining activity (%) (MMP-2; concentration 0.0111 µM): 95.55; remaining activity (%) (MMP-2; concentration 0.0553 µM): 86.42; remaining activity (%) (MMP-2; concentration 0.28 µM): 84.28; remaining activity (%) (MMP-2; concentration 1.38 µM): 96.70; remaining activity (%) (MMP-2; concentration 6.91 µM): 90.43; remaining activity (%) (MMP-2; concentration 34.57 µM): 98.71; remaining activity (%) (MMP-2; concentration 172.86 µM): 67.90; remaining activity (%) (MMP-2; concentration 864.30 µM): 16.96; remaining enzyme activity (% of control) (MMP-9; concentration 0.0553 µM): 94.85; remaining enzyme activity (% of control) (MMP-9; concentration 0.28 µM): 91.07; remaining enzyme activity (% of control) (MMP-9; concentration 1.38 µM): 90.00; remaining enzyme activity (% of control) (MMP-9; concentration 6.91 µM): 80.21; remaining enzyme activity (% of control) (MMP-9; concentration 34.57 µM): 81.44; remaining enzyme activity (% of control) (MMP-9; concentration 172.86 µM): 37.12; remaining enzyme activity (% of control) (MMP-9; concentration 864.30 µM): 14.22; IC50 (MMP-9): 115 ± 78.3 µM
2 | O=C(CNC(=O)NC12CC3CC(CC(C3)C1)C2)NCCSCC(=O)NCc1c[nH]nn1 [66+787 Linker 24] | 861 ± 97.2 | 101.35 | 99.22 | 101.28 | 105.60 | 109.06 | 90.00 | 81.70 |  |  |  |  |  |  |  |  |  |  |  |  | remaining activity (%) (MMP-2; concentration 0.0156 µM): 107.17; remaining activity (%) (MMP-2; concentration 0.08 µM): 100.74; remaining activity (%) (MMP-2; concentration 0.39 µM): 89.54; remaining activity (%) (MMP-2; concentration 9.75 µM): 92.40; remaining activity (%) (MMP-2; concentration 48.76 µM): 87.86; remaining activity (%) (MMP-2; concentration 243.80 µM): 72.74; remaining activity (%) (MMP-2; concentration 1219.00 µM): 41.09; remaining enzyme activity (% of control) (MMP-9; concentration 1219.00 µM): 47.95
3 | Cn1c(O)nc2cc(C(=O)NCCCCCCCCNC(=O)CNC(=O)NC34CC5CC(CC(C5)C3)C4)cnc21 [66+826 Linker 4] |  | 98.21 |  |  | 89.16 |  |  |  | 90.87 | 97.75 | 97.67 | 98.57 | 99.42 | 77.03 | 93.59 | 93.14 | 98.12 | 95.00 | 90.00 | 85.00 | 
4 | O=C(CNC(=O)NC12CC3CC(CC(C3)C1)C2)NCCCCCCCCNC(=O)c1cncc(O)c1 [66+828 Linker 4] |  | 95.05 | 92.81 | 100.82 | 101.95 | 96.31 | 80.00 | 52.30 |  |  |  |  |  |  |  |  |  |  |  |  | remaining activity (%) (MMP-2; concentration 0.0156 µM): 106.93; remaining activity (%) (MMP-2; concentration 0.08 µM): 108.75; remaining activity (%) (MMP-2; concentration 0.39 µM): 91.04; remaining activity (%) (MMP-2; concentration 9.75 µM): 96.24; remaining activity (%) (MMP-2; concentration 48.76 µM): 69.88; remaining activity (%) (MMP-2; concentration 243.80 µM): 65.10; remaining activity (%) (MMP-2; concentration 1219.00 µM): 54.12; remaining enzyme activity (% of control) (MMP-9; concentration 1219.00 µM): 13.62
5 | O=C(CNC(=O)NC12CC3CC(CC(C3)C1)C2)NCCOCCOCCNC(=O)c1cncc(O)c1 [66+828 Linker 10] | 293 ± 32.6 |  | 104.97 | 105.32 | 97.80 | 93.32 | 91.82 | 71.42 |  |  |  |  |  |  |  |  |  |  |  |  | remaining activity (%) (MMP-2; concentration 0.07 µM): 92.68; remaining activity (%) (MMP-2; concentration 0.33 µM): 96.27; remaining activity (%) (MMP-2; concentration 1.67 µM): 86.29; remaining activity (%) (MMP-2; concentration 8.34 µM): 96.46; remaining activity (%) (MMP-2; concentration 41.72 µM): 79.41; remaining activity (%) (MMP-2; concentration 208.60 µM): 61.20; remaining activity (%) (MMP-2; concentration 1043.00 µM): 17.26; remaining activity (%) (MMP-2; concentration […]): 100.18; remaining enzyme activity (% of control) (MMP-9; concentration 1219.00 µM): 29.10; IC50 (MMP-9): 521 ± 36.5 µM

The next lines start with results.

Row | IC50 (MMP-2) [µM] | remaining activity (%) (MMP-2; concentration 1.95 µM) | remaining enzyme activity (% of control) (MMP-9; concentration 0.08 µM) | remaining enzyme activity (% of control) (MMP-9; concentration 0.39 µM) | remaining enzyme activity (% of control) (MMP-9; concentration 1.95 µM) | remaining enzyme activity (% of control) (MMP-9; concentration 9.75 µM) | remaining enzyme activity (% of control) (MMP-9; concentration 48.76 µM) | remaining enzyme activity (% of control) (MMP-9; concentration 243.80 µM) | remaining activity (%) (MMP-2; concentration 0.12 µM) | remaining activity (%) (MMP-2; concentration 0.49 µM) | remaining activity (%) (MMP-2; concentration 7.81 µM) | remaining activity (%) (MMP-2; concentration 31.25 µM) | remaining activity (%) (MMP-2; concentration 125.00 µM) | remaining activity (%) (MMP-2; concentration 500.00 µM) | remaining enzyme activity (% of control) (MMP-9; concentration 0.12 µM) | remaining enzyme activity (% of control) (MMP-9; concentration 0.49 µM) | remaining enzyme activity (% of control) (MMP-9; concentration 7.81 µM) | remaining enzyme activity (% of control) (MMP-9; concentration 31.25 µM) | remaining enzyme activity (% of control) (MMP-9; concentration 125.00 µM) | remaining enzyme activity (% of control) (MMP-9; concentration 500.00 µM) | SMILES | also measured
6 |  | 99.61 |  |  | 80.91 |  |  |  | 104.18 | 97.92 | 91.81 | 84.92 | 90.24 | 77.04 | 90.98 | 79.87 | 80.18 | 77.01 | 59.34 | 44.40 | Cn1c(O)nc2cc(C(=O)NCC34CC5CC(CC(C5)C3)C4)cnc21 [66+826 Linker 1] | 
7 |  | 99.57 |  |  | 97.71 |  |  |  | 101.73 | 104.42 | 96.59 | 91.55 | 88.04 | 85.39 | 99.87 | 98.00 | 90.00 | 87.32 | 80.00 | 70.00 | Cn1c(O)nc2cc(C(=O)NCCOCCOCCNC(=O)CNC(=O)NC34CC5CC(CC(C5)C3)C4)cnc21 [66+826 Linker 10] | 
8 |  | 102.06 |  |  | 96.97 |  |  |  | 102.70 | 99.61 | 101.87 | 95.39 | 94.81 | 77.92 | 93.60 | 81.81 | 103.45 | 97.31 | 94.06 | 80.41 | Cn1c(O)nc2cc(C(=O)NCCCC/C=C/C(=O)CC(=O)NCC34CC5CC(CC(C5)C3)C4)cnc21 [66+826 Linker 12] | 
9 |  | 101.91 |  |  | 102.00 |  |  |  | 102.86 | 110.62 | 112.01 | 94.11 | 93.82 | 94.00 | 103.98 | 100.00 | 100.00 | 108.11 | 104.50 | 89.34 | Cn1c(O)nc2cc(C(=O)NCCSCC(=O)NCC34CC5CC(CC(C5)C3)C4)cnc21 [66+826 Linker 24] | 
